Experiment: X-ray diffraction of the gas hydrates formed
Assay type: physicochemical
Conditions: systems 1-3; combination of structure I and structure II hydrate in all three systems
Source text: FIG. 17(a) illustrates the X-ray diffraction pattern of the gas hydrates formed in systems 1-3.
The diffraction studies indicate that regardless of the nature of the AA used the XRD pattern of the solids formed are very similar indicating essentially the same hydrate mixtures are formed in each of systems 1-3. In short, there is a combination of structure I and structure II hydrate formed in all three systems considered.

For `Cc1c(C)c2c(c(C)c1OC(=O)CCC(=O)O)CCC(C)(CCCC(C)CCCC(C)CCCC(C)CCCC(C)C)O2` (stereo not shown) [tocopherol succinate], the “effect on structure of the hydrate formed (XRD pattern)” value was “does not alter the structure of the hydrate formed”.
